Legend:
scFv C21 [1] = test: Inhibition by synthetic peptides of scFv C21 binding to Colo38 cells; design: species or system human; conditions: for Inhibition of the binding of scFv C21 to HMW-MAA+ melanoma cells Colo38: soluble peptide, FIG. 8
Method: FIG. 8. Inhibition of the reactivity of scFv C21 with HMW-MAA^+ cells Colo38 by synthetic peptides P1C21 and P3C21 and by modified peptide P3C21. Varying concentrations of synthetic peptides P1C21 (-●-), P3C21(-▴-), P3A5 (-⋄-), P3V7 ( ? ) and P3S10 ( ? ) were incubated for 2 h at 4° C. with 50 μl of PP scFv (1:1600 dilution in 1% BSA-PBS) and 50 μl of biotinylated mAb 9E10 (2.5 μg/ml 1% BSA-PBS). The mixture was then transferred to wells containing cells Colo38. Binding of scFvC21 was detected using SA-HRP (top panel). Results are expressed as % inhibition. The unrelated peptide MART-1 (-∇-) and the scFv #28 (bottom panel) which recognizes an unrelated HMW-MAA determinant were used as specificity controls.
The ELISA to test the reactivity of soluble scFv antibodies with synthetic peptides and melanoma cells and of mouse immune sera with melanoma cells and with peptides was performed as described (Desai et al., Cancer Res 58:2417-2425, 1998; Desai et al., J Immunol 165:3275-3283, 2000; Matsui et al., J Immunol 139:2088-2095, 1987). Results are expressed as absorbance of optical density (O.D.) at 450 nm. The competition assay to map the antigenic determinant recognized by scFv C21 was performed by mixing biotinylated scFv C21 (0.25 μg/well) with two-fold dilutions of mouse mAb or scFv PP or by mixing biotinylated mAb (at an optimal amount giving absorbance, measured at 450 nm of 1.0) with two fold dilutions of scFv PP. […] Binding of biotinylated scFv antibodies and biotinylated mAb to target cells was measured by sequential incubation with SA-HRP and substrate as described (Noronha et al., J Immunol 161:2968-2976, 1998). The results are expressed as percent inhibition by mAb, scFv or peptide (competitor or inhibitor) of scFv or mAb binding to HMW-MAA^+ cells. The percent inhibition was calculated using the formula: % inhibition=((OD450 in the absence of inhibitor−OD450 in the presence of inhibitor)/OD450 in the absence of inhibitor)×100.

scFv C21 [2] = test: ELISA of synthetic peptides immobilized on plate with scFv C21; assay type: binding, human; conditions: peptide immobilized by 0.25% glutaraldehyde PBS
Method: FIG. 7. Reactivity in ELISA of scFv C21 with synthetic peptides derived from those isolated by panning the phage display peptide library X15 with scFv C21. Ninety-six well plates were coated for 2 h at 37° C. with synthetic peptides P1C21 ( ? ), P2C21 (125 μM) ( ? ), and P3C21 (125 μM) ( ? ), in 0.25% glutaradehyde-PBS. Following blocking with PBS-1% BSA, wells were incubated for 2 h at room temperature with 50 μl of PP scFv C21 at and 50 μl of biotinylated mAb 9E10 (2.5 μg/ml 1% BSA-PBS). Binding of scFv antibody to ? peptides was detected by addition of SA-HRP. Results are expressed as absorbance at […]. […]
The ELISA to test the reactivity of soluble scFv antibodies with synthetic peptides and melanoma cells and of mouse immune sera with melanoma cells and with peptides was performed as described (Desai et al., Cancer Res 58:2417-2425, 1998; Desai et al., J Immunol 165:3275-3283, 2000; Matsui et al., J Immunol 139:2088-2095, 1987). Results are expressed as absorbance of optical density (O.D.) at 450 nm. The competition assay to map the antigenic determinant recognized by scFv C21 was performed by mixing biotinylated scFv C21 (0.25 μg/well) with two-fold dilutions of mouse mAb or scFv PP or by mixing biotinylated mAb (at an optimal amount giving absorbance, measured at 450 nm of 1.0) with two fold dilutions of scFv PP. […]

[3] = tested on: HMW-MAA^+ melanoma cells Colo38; test: Immunization of BALB/c mice with peptide-KLH conjugate, HMW-MAA-specific antibodies in sera; assay type: in vivo; conditions: control peptide immunization
Method: FIG. 9. Development of antibodies with selective reactivity with HMW-MAA^+ cells Colo38 in BALB/c mice immunized with peptide P1C21 and boosted with Colo 38 cells. Mice were immunized with KLH-conjugated peptide P1C21 ( ? ) (50 μg/injection) on day 0, 21, 42, 63, 84 and 105, and with HMW-MAA^+ Colo38 melanoma cells (5×10^5 cells/injection) on day 132. Sera were harvested one week before the first immunization, and one week after each immunization. Two-fold dilutions of sera (100 μl/well) were incubated with HMW-MAA^+ Colo38 melanoma cells (1×10^5/well). Following an additional incubation with HRP-conjugated goat anti-mouse IgG antibodies, the reaction was developed using TMB substrate. O.D. was measured at 450 nm. Results are expressed as the mean±SD of the highest dilution of sera giving 50% of the maximal binding to HMW-MAA^+ cells. Sera from mice immunized with peptide MB1194-208 were used as controls. *p<0.05.
FIG. 10. Flow cytometry analysis of HMW-MAA^+ M14#5/HMW-MAA melanoma cells stained with antibodies elicited by peptide P1C21 and HMW-MAA^+ cells Colo38 in BALB/c mice. […] Cells were then analyzed with a FACScan™ flow cytometry. Results are expressed as fluorescence intensity (empty histogram). […]
FIG. 11. […] Antigens were eluted from the immunoadsorbent, and analyzed by SDS-PAGE in an 8% polyacrylamide gel. […]

HMW-MAA^+ cells Colo38 = test: Delayed-type hypersensitivity (DTH) reaction in immunized mice; assay type: in vivo, BALB/c mice; conditions: mice immunized six times, cells injected day 132
Method: FIG. 12. DTH reaction to HMW-MAA^+ melanoma cells Colo38 in BALB/c mice immunized with peptide P1C21. Irradiated (20K rads) HMW-MAA^+ cells Colo38 (5×10^5 cells/mouse) ( ? ) and HMW-MAA^− LG2 cells (5×10^5 cells/mouse) (□) were injected on day 132 into the right and left hind footpad, respectively, of BALB/c mice, which had been immunized six times with peptide P1C21 on days 0, 21, 42, 63, 84 and 105. Amount of swelling induced by the injected cells was measured and calculated by subtracting the thickness of the footpad measured at time 0 h from that measured 24 h after the injection of cells. Mice immunized with control peptide MB1194-208 using the same schedule were injected at the same time point with either Colo38 or LG2 cells, and used as controls. *p<0.05.
Mice which had been immunized six times with peptide P1C21 or control peptide were injected on day 132 s.c. into the right and left hind footpads with irradiated HMW-MAA^+ cells Colo38 (5×10^5 cells/injection/) and HMW-MAA^− cells LG2 (5×10^5 cells/injection/), respectively. The thickness of each footpad was measured and calculated at the indicated times as previously described (Luo et al., J Immunol 174:7104-7110, 2005, herein incorporated by reference).

scFv C21 [4] = test: Kinetic binding studies by surface plasmon resonance (BIACORE 3000); design: species or system human; conditions: scFv C21 immobilized, 25° C., peptide 1 to 32 μM, 1:1 Langmurian model
Method: Binding experiments were performed with the surface plasmon resonance based biosensor instrument BIACORE™ 3000 (Biacore AB, Uppsala, Sweden), at 25° C. Immobilization of scFv C21 in the sensor surface was performed following the standard amine coupling procedure according to the manufacturer's instructions. Briefly, 35 μl of a solution containing 0.2 M N-ethyl-N′-(dimethylaminopropyl) carbodiimide (EDC) and 0.05M N-hydroxysuccinimide (NHS), were injected at a flow rate of 5 μl/min to activate carboxyl groups on the sensor chip surface. scFv C21 ([…] of 10 mM NaOAc buffer, pH 5.0) was flowed over the chip surface at a flow rate of 20 μl/min until the desired bound protein level was reached. Unreacted scFv C21 was washed out and unreacted activated groups were blocked by the injection of 35 μl of 1 M ethanolamine at 5 μl/min. The final immobilization response of scFv C21 was 3,000 RU. A reference surface was generated simultaneously under the same conditions but without scFv C21 injection and used as a blank to correct for instrument and buffer artifacts. Peptides were injected at variable concentrations at different flow rates from 20-100 μl/min. Peptides binding to scFv C21 immobilized on the chip was monitored in real time.
To exclude that binding constants obtained from SPR were not affected by either rebinding of the analyte or mass transport effects, studies were repeated at different flow rates (20-100 μl/min). Kinetic constants obtained at both flow rates remained unchanged.
To evaluate binding, peptides P1C21 and P3C21 were injected at concentrations ranging from 1 to 32 μM. The resulting sensograms were used for estimation of the kinetic constants (kon and koff) by global fitting to the 1:1 Langmurian interaction model. The binding constant (Kd) was calculated for each peptide as a koff/kon ratio.

Substance	Inhibition of the binding of scFv C21 to HMW-MAA+ melanoma cells Colo38 (scFv C21 [1])	Reactivity of immobilized synthetic peptide with scFv C21 in ELISA (scFv C21 [2])	Reactivity of immune sera with Colo38 cells [3]	DTH response: swelling of footpad injected with Colo38 cells versus LG2 cells (HMW-MAA^+ cells Colo38)	Koff (scFv C21 [4]) [s⁻¹]	Kon (scFv C21 [4]) [M⁻¹ s⁻¹]	Effect of Asp to Ser replacement at position 10 on ability of P3C21 to inhibit reactivity of scFv C21 with Colo38 cells (scFv C21 [1]; compared with P3C21)
EARNWHDFPIHPRTL (listed as Homo sapiens) [P2C21]	did not inhibit the binding of scFv C21	reacted specifically with scFv C21					
MB1194-208: irrelevant peptide derived from the sequence of the proteasome subunit MB1, used as control (AYGVMDRGYSYDLEV)			displayed no reactivity with Colo38 cells	no swelling of the footpad was observed			
RPYRYDPLGDLKSRH [P3C21]	inhibited the binding of scFv C21 to HMW-MAA^+ cells in a dose dependent fashion	did not			0.0655	2170	
RPYRYDPLGSLKSRH [P3S10]					0.00307	917	only a slight effect

— US9694061B2, “Fully human antibodies to high molecular weight-melanoma associated antigen and uses thereof” (University of Pittsburgh—Of the Commonwealth System of …, priority 2008, dated 2017)
